Source: article PMC9118204, “Novel Dihydropyrimidinone Derivatives as Potential P-Glycoprotein Modulators” (ACS Omega, 2022)

Tests used:
[1] = system: colorectal adenocarcinoma (Caco-2) cell line; assay: MTT cytotoxicity assay against Caco-2 cells; format: cell-based; details: for cytotoxic activity in words: halogen in the N-phenyl substituent
Experimental: The colorectal adenocarcinoma Caco-2 cell line was generously provided by the Zydus Research Centre, Ahmedabad, Gujarat, India. These cells were maintained in DMEM (Hi-Media) containing 25 mM HEPES buffer, 1000 mg/L glucose, L-glutamine, sodium bicarbonate, and sodium pyruvate and supplemented with 20% heat-inactivated FBS (cell clone), 1% (v/v) minimal essential medium nonessential amino acids (Hi-Media), antibiotic, and antimycotic (penicillin, streptomycin, and amphotericin B; Hi-Media) in a humidified atmosphere of 5% CO2 at 37 °C. […] Caco-2 VB cells, which overexpress hPGP, were generated by growing Caco-2 cells in the presence of 1 μg/mL vinblastine. The drug was removed from the culture medium 2–3 days prior to using the Caco-2 VB cells in the biological assays.
Caco-2 cells were cultured in 96-well plates until they reached 70–80% confluency and then treated with the TRZ-DHPM derivatives (0.1–100 μM). Cytotoxicity was determined using an MTT (3-(4,5-dimethylthiazol-2-yl)-2,5-diphenyltetrazolium bromide) assay as described previously.[31]

[2] = target: T1, human P-glycoprotein (hPgp) (Homo sapiens, UniProt P08183); assay: hPgp-mediated calcein-AM efflux assay in Caco-2 VB cells; format: cell-based; details: for EC50: Caco-2 VB cells, calcein-AM, read-out: inhibition of calcein extrusion, EC50
T1 construct: Caco-2 VB cells, which overexpress hPGP, were generated by growing Caco-2 cells in the presence of 1 μg/mL vinblastine; endogenous in cells; host or cells: Caco-2 VB (vinblastine-resistant human colorectal adenocarcinoma Caco-2 cells)
Experimental: (§1) In this assay, hydrolysis of intracellular calcein-AM to calcein by endogenous cellular esterases causes the cell to become highly fluorescent (see Figure S1 in Supporting Information).
The colorectal adenocarcinoma Caco-2 cell line was generously provided by the Zydus Research Centre, Ahmedabad, Gujarat, India. […] Caco-2 VB cells, which overexpress hPGP, were generated by growing Caco-2 cells in the presence of 1 μg/mL vinblastine. The drug was removed from the culture medium 2–3 days prior to using the Caco-2 VB cells in the biological assays.
Each well contained 100 μL of cells in culture medium, 50 μL of a solution containing the TRZ-DPHM derivative, and 50 μL of calcein-AM (total volume, 200 μL). The final concentration of putative hPGP inhibitor in each assay ranged from 0.01 to 30 μg/mL. […] Caco-2 cells were used as a negative control (Figure S1). […] PBS was used for all dilutions. All experiments were performed in triplicate.
The effectiveness of inhibitors on Pgp efflux activity, i.e., calcein retention was calculated by the following equation [drawing 1] where FT is the fluorescence of treated cells and FU is the fluorescence of untreated cells.

hPgp = target: T2, hPgp (Homo sapiens, UniProt P08183); assay: Fluorescence microscopy imaging of intracellular calcein in Caco-2 VB cells; format: cell-based; details: for intracellular calcein retention by fluorescence microscopy: Caco-2-VB cells, 1 μM calcein-AM, 30 min, concentration = EC50
T2 construct: Caco-2 VB cells, which overexpress hPGP, were generated by growing Caco-2 cells in the presence of 1 μg/mL vinblastine; endogenous in cells; host or cells: Caco-2 VB (vinblastine-resistant human colorectal adenocarcinoma Caco-2 cells)
Description: as §1
Full details are provided in the Supporting Information.

[3] = Homo sapiens, Caco-2 cell line (Table S3)
[4] = Homo sapiens, Caco-2 cell line, MTT assay (Table 1)

T2 sequence (P08183 whole entry): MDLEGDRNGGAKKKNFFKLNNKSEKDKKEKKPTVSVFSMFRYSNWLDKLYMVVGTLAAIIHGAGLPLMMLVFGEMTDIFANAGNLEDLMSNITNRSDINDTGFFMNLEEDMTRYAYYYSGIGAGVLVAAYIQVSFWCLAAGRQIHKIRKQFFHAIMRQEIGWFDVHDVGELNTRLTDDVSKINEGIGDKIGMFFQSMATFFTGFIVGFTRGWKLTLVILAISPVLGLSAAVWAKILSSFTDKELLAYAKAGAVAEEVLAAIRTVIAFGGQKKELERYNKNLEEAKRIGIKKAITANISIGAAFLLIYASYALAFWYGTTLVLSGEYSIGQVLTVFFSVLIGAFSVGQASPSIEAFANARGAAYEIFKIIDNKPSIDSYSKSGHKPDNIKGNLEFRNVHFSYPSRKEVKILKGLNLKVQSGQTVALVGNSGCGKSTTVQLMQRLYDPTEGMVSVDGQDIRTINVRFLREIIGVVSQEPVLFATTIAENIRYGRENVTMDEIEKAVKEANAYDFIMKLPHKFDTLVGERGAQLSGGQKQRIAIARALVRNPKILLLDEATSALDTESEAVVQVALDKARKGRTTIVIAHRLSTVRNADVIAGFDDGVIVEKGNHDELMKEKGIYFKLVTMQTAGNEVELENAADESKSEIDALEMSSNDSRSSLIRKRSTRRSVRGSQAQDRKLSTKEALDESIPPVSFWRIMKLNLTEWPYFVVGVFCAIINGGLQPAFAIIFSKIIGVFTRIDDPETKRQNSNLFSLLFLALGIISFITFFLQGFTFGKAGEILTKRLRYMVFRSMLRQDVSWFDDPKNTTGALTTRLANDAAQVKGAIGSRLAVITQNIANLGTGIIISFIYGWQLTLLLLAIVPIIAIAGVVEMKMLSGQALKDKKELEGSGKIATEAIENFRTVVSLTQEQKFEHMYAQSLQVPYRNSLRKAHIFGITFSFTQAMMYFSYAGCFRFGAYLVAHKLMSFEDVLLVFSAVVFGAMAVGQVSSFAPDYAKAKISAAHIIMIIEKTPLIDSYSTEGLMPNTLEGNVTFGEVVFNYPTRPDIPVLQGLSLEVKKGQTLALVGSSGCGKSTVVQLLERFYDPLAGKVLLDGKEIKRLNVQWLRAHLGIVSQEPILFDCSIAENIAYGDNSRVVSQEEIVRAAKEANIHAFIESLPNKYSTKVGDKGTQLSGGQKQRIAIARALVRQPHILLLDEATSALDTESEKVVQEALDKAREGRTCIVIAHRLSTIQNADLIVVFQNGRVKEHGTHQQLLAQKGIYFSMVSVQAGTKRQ
T1 sequence (P08183 whole entry): as above

Compound	IC50 [1, 3] [nM]	IC50 [1, 4] [nM]	EC50 [2] [nM]	melting point [°C]	other results
CC(=O)C1=C(C)NC(=O)NC1c1ccccc1OCc1cn(-c2ccccc2)nn1 (stereo not shown) [6aa′, 5-Acetyl-6-methyl-4-(2-((1-phenyl-1H-1,2,3-triazol-4-yl)methoxy)phenyl)-3,4-dihydropyrimidin-2(1H)-one]	1000 ± 300	1100 ± 200	12560 ± 80	145 to 147	–
CC(=O)C1=C(C)NC(=O)NC1c1ccccc1OCc1cn(-c2ccccc2[N+](=O)[O-])nn1 (stereo not shown) [6ab′, 5-Acetyl-6-methyl-4-(2-((1-(2-nitrophenyl)-1H-1,2,3-triazol-4-yl)methoxy)phenyl)-3,4-dihydropyrimidin-2(1H)-one]	–	1300 ± 800	15420 ± 60	133 to 135	decrease in potency on replacing chlorine by nitro group ([2]; relative to 6ad′, calcein-AM assay): 5 fold
CC(=O)C1=C(C)NC(=O)NC1c1ccccc1OCc1cn(-c2ccc([N+](=O)[O-])cc2)nn1 (stereo not shown) [6ac′, 5-Acetyl-6-methyl-4-(2-((1-(4-nitrophenyl)-1H-1,2,3-triazol-4-yl)methoxy)phenyl)-3,4-dihydropyrimidin-2(1H)-one]	2000 ± 530	–	–	148 to 150	–
CC(=O)C1=C(C)NC(=O)NC1c1ccccc1OCc1cn(-c2cccc(Cl)c2)nn1 (stereo not shown) [6ad′, 5-Acetyl-4-(2-((1-(3-chlorophenyl)-1H-1,2,3-triazol-4-yl)methoxy)phenyl)-6-methyl-3,4-dihydropyrimi-din-2(1H)-one]	–	570 ± 30	3140 ± 30	130 to 132	cytotoxic activity in words ([1]; Caco-2 cell line): sub-micromolar; intracellular calcein retention by fluorescence microscopy (hPgp): confirmed intracellular calcein retention; modulation of hPgp function compared with cyclosporin A or verapamil (statistical analysis) (hPgp; calcein retention, p < 0.0001): better modulator of hPgp function
CC(=O)C1=C(C)NC(=O)NC1c1ccccc1OCc1cn(-c2cccc(Br)c2)nn1 (stereo not shown) [6ae′]	–	–	–	–	IC50 ([1]; Caco-2 cell line (Table S3)): 2000 ± 1200 nM
CC(=O)C1=C(C)NC(=O)NC1c1ccccc1OCc1cn(-c2c(Cl)cc(Cl)cc2Cl)nn1 (stereo not shown) [6af′, 5-Acetyl-6-methyl-4-(2-((1-(2,4,6-trichlorophenyl)-1H-1,2,3-triazol-4-yl)methoxy)phenyl)-3,4-dihydro-pyrimidin-2(1H)-one]	3700 ± 300	–	–	139 to 141	–
CC(=O)C1=C(C)NC(=O)NC1c1ccc(OCc2cn(-c3ccccc3)nn2)cc1 (stereo not shown) [6ba′, 5-Acetyl-6-methyl-4-(4-((1-phenyl-1H-1,2,3-triazol-4-yl)methoxy)phenyl)-3,4-dihydropyrimidin-2(1H)-one]	2200 ± 200	–	–	133 to 135	–
CC(=O)C1=C(C)NC(=O)NC1c1ccc(OCc2cn(-c3ccccc3[N+](=O)[O-])nn2)cc1 (stereo not shown) [6bb′, 5-Acetyl-6-methyl-4-(4-((1-(2-nitrophenyl)-1H-1,2,3-triazol-4-yl)methoxy)phenyl)-3,4-dihydropyrimidin-2(1H)-one]	1600 ± 100	–	–	157 to 159	–
CC(=O)C1=C(C)NC(=O)NC1c1ccc(OCc2cn(-c3ccc([N+](=O)[O-])cc3)nn2)cc1 (stereo not shown) [6bc′, 5-Acetyl-6-methyl-4-(4-((1-(4-nitrophenyl)-1H-1,2,3-triazol-4-yl)methoxy)phenyl)-3,4-dihydropyrimidin-2(1H)-one]	2440 ± 40	–	–	134 to 136	–
CC(=O)C1=C(C)NC(=O)NC1c1ccc(OCc2cn(-c3cccc(Cl)c3)nn2)cc1 (stereo not shown) [6bd′, 5-Acetyl-4-(4-((1-(3-chlorophenyl)-1H-1,2,3-triazol-4-yl)methoxy)phenyl)-6-methyl-3,4-dihydropyrimidin-2(1H)-one]	–	760 ± 60	4800 ± 200	142 to 144	cytotoxic activity in words ([1]; Caco-2 cell line): sub-micromolar
CC(=O)C1=C(C)NC(=O)NC1c1ccc(OCc2cn(-c3cccc(Br)c3)nn2)cc1 (stereo not shown) [6be′, 5-Acetyl-4-(4-((1-(3-bromophenyl)-1H-1,2,3-triazol-4-yl)methoxy)phenyl)-6-methyl-3,4-dihydropyrimidin-2(1H)-one]	–	800 ± 100	9250 ± 20	138 to 140	cytotoxic activity in words ([1]; Caco-2 cell line): sub-micromolar
CC(=O)C1=C(C)NC(=O)NC1c1ccc(OCc2cn(-c3c(Cl)cc(Cl)cc3Cl)nn2)cc1 (stereo not shown) [6bf′, 5-Acetyl-6-methyl-4-(4-((1-(2,4,6-trichlorophenyl)-1H-1,2,3-triazol-4-yl)methoxy)phenyl)-3,4-dihydro-pyrimidin-2(1H)-one]	1500 ± 70	–	–	135 to 137	–
COc1ccc(-n2cc(COc3ccc(C4NC(=O)NC(C)=C4C(C)=O)cc3)nn2)c(OC)c1 (stereo not shown) [6bh′, 5-Acetyl-4-(4-((1-(2,4-dimethoxyphenyl)-1H-1,2,3-triazol-4-yl)methoxy)phenyl)-6-methyl-3,4-dihydro-pyrimidin-2(1H)-one]	–	600 ± 200	4200 ± 200	140 to 142	–
CC(=O)C1=C(C)NC(=O)NC1c1cc(Br)cc(Br)c1OCc1cn(-c2ccccc2)nn1 (stereo not shown) [6ca′, 5-Acetyl-4-(3,5-dibromo-2-((1-phenyl-1H-1,2,3-triazol-4-yl)methoxy)phenyl)-6-methyl-3,4-dihydropyrimidin-2(1H)-one]	–	900 ± 100	4000 ± 200	157 to 159	intracellular calcein retention by fluorescence microscopy (hPgp): confirmed intracellular calcein retention
CC(=O)C1=C(C)NC(=O)NC1c1cc(Br)cc(Br)c1OCc1cn(-c2ccccc2[N+](=O)[O-])nn1 (stereo not shown) [6cb′, 5-Acetyl-4-(3,5-dibromo-2-((1-(2-nitrophenyl)-1H-1,2,3-triazol-4-yl)methoxy)phenyl)-6-methyl-3,4-dihydro-pyrimidin-2(1H)-one]	–	1220 ± 80	3400 ± 300	167 to 169	intracellular calcein retention by fluorescence microscopy (hPgp): confirmed intracellular calcein retention
CC(=O)C1=C(C)NC(=O)NC1c1cc(Br)cc(Br)c1OCc1cn(-c2ccc([N+](=O)[O-])cc2)nn1 (stereo not shown) [6cc′, 5-Acetyl-4-(3,5-dibromo-2-((1-(4-nitrophenyl)-1H-1,2,3-triazol-4-yl)methoxy)phenyl)-6-methyl-3,4-dihydro-pyrimidin-2(1H)-one]	–	1250 ± 80	8900 ± 100	165 to 167	–
COc1cc(C2NC(=O)NC(C)=C2C(C)=O)ccc1OCc1cn(-c2ccccc2)nn1 (stereo not shown) [6da′, 5-Acetyl-4-(3-methoxy-4-((1-phenyl-1H-1,2,3-triazol-4-yl)methoxy)phenyl)-6-methyl-3,4-dihydropyrimidin-2(1H)-one]	2560 ± 40	–	–	151 to 153	–
COc1cc(C2NC(=O)NC(C)=C2C(C)=O)ccc1OCc1cn(-c2ccccc2[N+](=O)[O-])nn1 (stereo not shown) [6db′, 5-Acetyl-4-(3-methoxy-4-((1-(2-nitrophenyl)-1H-1,2,3-triazol-4-yl)methoxy)phenyl)-6-methyl-3,4-dihydropyri-midin-2(1H)-one]	–	–	–	–	IC50 ([1]; Caco-2 cell line (Table S3)): 2290 ± 90 nM
COc1cc(C2NC(=O)NC(C)=C2C(C)=O)ccc1OCc1cn(-c2ccc([N+](=O)[O-])cc2)nn1 (stereo not shown) [6dc′, 5-Acetyl-4-(3-methoxy-4-((1-(4-nitrophenyl)-1H-1,2,3-triazol-4-yl)methoxy)phenyl)-6-methyl-3,4-dihydro-pyrimidin-2(1H)-one]	2970 ± 30	–	–	159 to 161	–
N.N.O=C([O-])C1(C(=O)[O-])CCC1.[Pt+2] [carboplatin, reference compound]	–	–	–	–	IC50 ([1]; Caco-2 cell line, MTT assay (Table 1)): 7000 ± 2000 nM
COc1cccc2c1C(=O)c1c(O)c3c(c(O)c1C2=O)C[C@@](O)(C(C)=O)C[C@@H]3O[C@H]1C[C@H](N)[C@H](O)[C@H](C)O1 [daunorubicin, reference compound]	–	14000 ± 2000	–	–	–
Nc1ccn([C@@H]2O[C@H](CO)[C@@H](O)C2(F)F)c(=O)n1 [gemcitabine, reference compound]	4500 ± 980	5000 ± 1000	–	–	–
